Results: PMC7874386, “Protein-observed 19F NMR of LecA from Pseudomonas aeruginosa” (Glycobiology, 2020)
Where two headings read alike, the source gives them in different places.

Assays:
5FW LecA [1] = molecular target: T1, 5FW LecA (Pseudomonas aeruginosa, UniProt Q05097); assay: PrOF NMR titration of ligands to 5FW LecA (W42 peak intensity); format: binding
T1 construct: made in house; host or cells: Escherichia coli BL21 (DE3), plasmid pET25pa1l, grown with 5-fluoroindole
Description: All experiments were conducted on Bruker Ascend™700 (AvanceIII HD) spectrometer equipped with a 5 mm TCI700 CryoProbe™ in 3 mm tubes (Norell S-3-800-7) with following parameters: time domain of 1972, relaxation delay 1 s, acquisition time of 0.15 s, spectral width of 10 p.p.m. and 1024 scans resulting in measurement time of 20 minutes.
The decreasing intensity of the unbound W42 in 5FW LecA was followed to determine Kd values of ligands. Here, we used these values to normalize the changes in W42 peak intensities (Inormalized) following the equation (1) resulting in values plotted on Y-axis.(1) where I0 was unbound W42 in the reference spectrum of protein only, Imeasured was unbound W42 peak of protein with a ligand. The Kd values were calculated according to the one-site-binding model in GraphPad Prism 8 (GraphPad Software Inc., San Diego, CA) from three independent titrations.

LecA [2] = molecular target: T2, LecA (Pseudomonas aeruginosa, UniProt Q05097); settings: cited from earlier work; for affinity improvement compared to galactose: reported Kd values, ref Kadam, et al. 2011, Rodrigue, et al. 2013
T2 construct: made in house; host or cells: Escherichia coli BL21 (DE3) (inferred from the yield comparison; no protocol of its own is printed for the unlabelled protein)
T2 sequence (Q05097 whole entry): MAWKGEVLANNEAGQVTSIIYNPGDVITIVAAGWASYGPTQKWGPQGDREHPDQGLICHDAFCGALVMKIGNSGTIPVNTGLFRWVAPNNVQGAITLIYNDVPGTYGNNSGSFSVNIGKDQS

LecA [3] = molecular target: T2, LecA; assay: Isothermal titration calorimetry of Ca2+ to apo LecA; format: binding; settings: unlabeled apo LecA, TBS pH 7.4, 25°C; read-out: Kd (ITC)
Description: ITC was performed on a Microcal ITC200 (General Electric) at 25°C. Calcium ions were removed by extensive dialysis against 1 mM EDTA pH 7.4 (×4) followed by 150 mM NaCl (×4) and distilled water. The protein solution was lyophilized and the solid protein stored at −20°C. A solution of calcium chloride in TBS (20 mM Tris, 137 mM NaCl, 2.6 mM KCl at pH 7.4) was titrated into a calcium-free LecA solution in the same buffer. The data were analyzed according to the one-site-binding model using Microcal Origin software. Four independent titrations were performed using CaCl2 and LecA between 2 and 3 mM and 170 and 200 μM, respectively.

LecA [4] = molecular target: T2, LecA; assay: Competitive binding fluorescence polarization assay with LecA
Description: (§1) The competitive binding assay was performed as reported previously ([Joachim et al. 2016]). In total, 10 μL of LecA (40 μM) and meta-linked fluorescein-conjugate of phenyl-galactopyranoside (20 nM) in TBS pH 7.4 supplemented with 1 mM CaCl2 (TBS/Ca^2+) and 10 μL of compound-dilution series (8 mM to 62 μM, 8% DMSO) in TBS/Ca^2+ buffer were mixed in a 384-well plate (Greiner Bio-One, Germany) in three technical replicates. The sealed plate was centrifuged at 300 g for 1 min and incubated at room temperature with shaking. […] Polarization was calculated and the data were analyzed according to the four-parameter variable slope model (MARS Data Analysis Software, BMG Labtech GmbH, Germany), the top and bottom plateaus were determined from the control Me-α-D-Gal and data were reanalyzed with these values fixed.

5FW LecA [5] = molecular target: T1, 5FW LecA; assay: Competitive binding fluorescence polarization assay with 5FW LecA
Description: as §1

LecA [6] = molecular target: T2, LecA; settings: ref Cioci et al. 2003; cited from earlier work

T1 sequence (Q05097 2-122): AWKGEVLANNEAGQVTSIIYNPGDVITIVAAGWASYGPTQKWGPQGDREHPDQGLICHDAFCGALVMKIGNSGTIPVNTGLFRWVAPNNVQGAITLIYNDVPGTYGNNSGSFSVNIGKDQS

## O=[N+]([O-])c1ccc(O[C@@H]2O[C@H](CO)[C@H](O)[C@H](O)[C@H]2O)cc1 [pNPGal, p-nitrophenyl β-D-galactoside]
5FW LecA [1]
  Kd: 54 ± 6 µM
5FW LecA [1]; Kd in PrOF NMR, pNPGal vs D-Gal
  improved binding affinity compared to D-Gal: 6 fold
LecA [2]
  affinity improvement compared to galactose: 6 to 7 fold

## [Ca+2] [Ca^2+, calcium (II) ion]
5FW LecA [1]; 100 μM apo 5FW LecA, MES pH 6, 310 K, one-site-binding model, three independent titrations, listed as Ca2+, read-out: Kd (PrOF NMR, Ca2+ titration)
  Kd: 47 ± 8 µM
5FW LecA [1]; 100 μM apo 5FW LecA, MES pH 6, 310 K, one-site-binding model, three independent titrations, read-out: Kd (PrOF NMR, Ca2+ titration)
  Kd: 478 µM
LecA [3]
  Kd: 60 ± 20 µM

## O=C[C@H](O)[C@@H](O)[C@@H](O)[C@H](O)CO [D-Gal, D-galactose]
5FW LecA [1]
  Kd: 360 µM
LecA [4]
  IC50: 330 ± 40 µM
5FW LecA [5]
  IC50: 317 µM
LecA [6]
  Kd: 29 µM

## CC(C)C[C@H](NC(=O)[C@@H]1CCCN1C(=O)[C@H](CCCCN)NC(=O)c1ccc(O[C@@H]2O[C@H](CO)[C@H](O)[C@H](O)[C@H]2O)cc1)C(N)=O [GalAG0]
LecA [2]; ref Kadam et al. 2011, Kadam et al. 2013, Rodrigue et al. 2013
  Kd: 4.2 µM

## OC[C@H]1O[C@@H](Sc2ccc3ccccc3c2)[C@H](O)[C@@H](O)[C@H]1O [naphthyl β-thio-D-galactoside]
LecA [2]; ref Rodrigue et al. 2013
  Kd: 6.3 µM
LecA [2]
  affinity improvement compared to galactose: 6 to 7 fold

## CC(=O)N[C@H]1C(O)O[C@H](CO)[C@H](O)[C@@H]1O (stereo partly drawn) [D-GalNAc, N-acetyl D-galactosamine]
5FW LecA [1]
  Kd: 780 ± 97 µM
LecA [4]
  IC50: 1230 ± 200 µM
5FW LecA [5]
  IC50: 1990 µM
5FW LecA [5]; 5FW LecA
  IC50 (FP-based assay) higher compared with Kd from PrOF NMR: 3 fold

## OC[C@H]1O[C@@H](Oc2ccccc2)[C@H](O)[C@@H](O)[C@H]1O [Ph-β-D-Gal, phenyl-β-D-galactopyranoside]
5FW LecA [1]; 100 μM holo 5FW LecA, TBS pH 7.8, 310 K, one-site-binding model, three independent titrations, read-out: Kd (PrOF NMR)
  Kd: 166 ± 42 µM
